Reference: PubChem BioAssay (NCI)
Where “and” joins values, the source holds several entries; their conditions need not be identical. Equal values may be shown once.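 Five compound concentrations were applied to cells in 96-well plates for 48 hours; endpoints were derived by simple linear interpolation of the resulting dose-response curve. GI50 = concentration required for 50% inhibition of growth. Definition used: TGI = concentration required for complete inhibition of growth.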

Experiments:
Test in all cases: DTP human tumour cell line panel, 48 h
A549 NSCLC = system: A549 NSCLC
K-562 leukemia = system: K-562 leukemia
KM12 colon = system: KM12 colon
M19-MEL melanoma = system: M19-MEL melanoma
RPMI-8226 leukemia = system: RPMI-8226 leukemia
SK-MEL-5 melanoma = system: SK-MEL-5 melanoma
HL-60(TB) leukemia = system: HL-60(TB) leukemia
MDA-MB-231 breast = system: MDA-MB-231 breast
SNB-75 CNS = system: SNB-75 CNS
DMS 273 small cell lung = system: DMS 273 small cell lung
LXFL 529 NSCLC = system: LXFL 529 NSCLC

Structure (SMILES) | TGI (A549 NSCLC) | TGI (K-562 leukemia) | TGI (KM12 colon) | TGI (M19-MEL melanoma) | TGI (RPMI-8226 leukemia) | TGI (SK-MEL-5 melanoma) | GI50 (A549 NSCLC) | GI50 (HL-60(TB) leukemia) | TGI (HL-60(TB) leukemia) | GI50 (K-562 leukemia) | GI50 (KM12 colon) | GI50 (MDA-MB-231 breast) | TGI (MDA-MB-231 breast) | GI50 (RPMI-8226 leukemia) | GI50 (SK-MEL-5 melanoma) | GI50 (SNB-75 CNS) | TGI (SNB-75 CNS) | TGI (DMS 273 small cell lung) | TGI (LXFL 529 NSCLC)
CCc1ccc(/C(C)=N/NC(N)=S)cc1 | > 100 µM | > 100 µM | > 100 µM | > 100 µM | > 100 µM | > 100 µM |  |  |  |  |  |  |  |  |  |  |  |  | 
COC(=O)[C@@H](Cc1c[nH]c2ccccc12)NC(=O)/C=C/c1ccccc1 | > 100 µM | > 100 µM | 33.5 µM |  | 33.7 µM | 13.8 µM | 3.91 µM | 2.33 µM | 5.71 µM | 2.74 µM | 4.13 µM | 2.93 µM | 8.63 µM | 3.48 µM | 3.14 µM | 2.42 µM | > 100 µM |  | 
NC1=NC2(O)c3ccccc3C(=O)C2(O)N1 (stereo unspecified) | > 100 µM | > 100 µM | > 100 µM |  | > 100 µM | > 100 µM |  |  | > 100 µM |  |  |  |  |  |  |  | > 100 µM | > 100 µM | > 100 µM
COC1(OC)CC2C(=O)N(Cc3ccccc3)C1CC2S(=O)(=O)c1ccccc1 (stereo unspecified) | > 100 µM | > 100 µM | > 100 µM | > 100 µM | > 100 µM | > 100 µM |  |  | > 100 µM |  |  |  |  |  |  |  | > 100 µM | > 100 µM | 
COc1ccc2[nH]c(-c3cccc(N(C)C)c3)cc(=O)c2c1 | > 100 µM | 17.3 µM |  |  | 0.844 µM |  | 4.46 µM | 0.231 µM | 0.592 µM and 0.569 µM | 0.321 µM | 0.393 µM | 2.1 µM | > 100 µM | 0.443 µM | 0.305 µM | 0.371 µM | 50.2 µM |  | 
O=C(O)c1ccc(-c2ccc(C(=O)O)cc2I)c(I)c1 | > 100 µM | > 100 µM | > 100 µM |  | > 100 µM | > 100 µM | > 100 µM | > 100 µM | > 100 µM | > 100 µM | > 100 µM | > 100 µM | > 100 µM | > 100 µM | > 100 µM | > 100 µM | > 100 µM |  | 
CCCCCC(=O)OCC(=O)O[C@@H]1C[C@]2(C(C)C)O[C@@]1(C)[C@@H]1CC[C@@H](C)[C@H]1[C@@H]2OC(=O)/C=C/c1ccccc1 | > 100 µM | > 100 µM | > 100 µM |  | > 100 µM | > 77.4 µM | > 60.3 µM | > 53.2 µM | > 80.3 µM | > 41.3 µM | > 78.5 µM | > 57.5 µM | > 80.5 µM | 43.3 µM | 42.5 µM | 42.4 µM | > 87.6 µM |  | 
